Our source for the ring closure, isolated yield values is PMC5488202.

This data set can be described thus: Ring-closing metathesis (C=C formation) of fluorous-tagged (FDIPES) terminal dienes with Hoveyda-Grubbs 2nd generation catalyst (typically 2 mol%, 1-5 mol%), usually with 1,4-benzoquinone (4-10 mol%); quench P(CH2OH)3/Et3N/silica. The note with it: MTBE, 2.0 mM, 55.0 °C.

Turning to `CC(C)[Si](CCC(F)(F)C(F)(F)C(F)(F)C(F)(F)C(F)(F)C(F)(F)C(F)(F)C(F)(F)F)(OC[C@H]1CC=CCCN(S(=O)(=O)C(F)(F)F)Cc2cccc(c2)CN1S(=O)(=O)c1ccccc1[N+](=O)[O-])C(C)C` (mixture of isomers) [30 (14+12; E/Z mixture)], the ring closure, isolated yield (from C=CCCN(Cc1cccc(CN([C@H](CC=C)CO[Si](CCC(F)(F)C(F)(F)C(F)(F)C(F)(F)C(F)(F)C(F)(F)C(F)(F)C(F)(F)F)(C(C)C)C(C)C)S(=O)(=O)c2ccccc2[N+](=O)[O-])c1)S(=O)(=O)C(F)(F)F, 13-membered ring, 16.0 h) came out at 47%.
As to `COc1ccc([C@H]2COCC=CC[C@H](CO[Si](CCC(F)(F)C(F)(F)C(F)(F)C(F)(F)C(F)(F)C(F)(F)C(F)(F)C(F)(F)F)(C(C)C)C(C)C)N(S(=O)(=O)c3ccccc3[N+](=O)[O-])CC3=CC=C(CN(S(=O)(=O)c4ccccc4[N+](=O)[O-])C(=O)OC2)S3)c(OC)c1` [21 (15+9, from 20; 2 steps RCM + denosylation; E/Z 65:35)], the ring closure, isolated yield (from C=CCOC[C@@H](COC(=O)N(Cc1ccc(CN([C@H](CC=C)CO[Si](CCC(F)(F)C(F)(F)C(F)(F)C(F)(F)C(F)(F)C(F)(F)C(F)(F)C(F)(F)F)(C(C)C)C(C)C)S(=O)(=O)c2ccccc2[N+](=O)[O-])s1)S(=O)(=O)c1ccccc1[N+](=O)[O-])c1ccc(OC)cc1OC, 18-membered ring, 24.0 h) is 34%.
For the setting “from C=CCOc1ccccc1COC(=O)N(Cc1cccc(CN([C@H](CC=C)CO[Si](CCC(F)(F)C(F)(F)C(F)(F)C(F)(F)C(F)(F)C(F)(F)C(F)(F)C(F)(F)F)(C(C)C)C(C)C)S(=O)(=O)c2ccccc2[N+](=O)[O-])c1)S(=O)(=O)c1ccccc1[N+](=O)[O-], 18-membered ring, 24.0 h”, `CC(C)[Si](CCC(F)(F)C(F)(F)C(F)(F)C(F)(F)C(F)(F)C(F)(F)C(F)(F)C(F)(F)F)(OC[C@H]1CC=CCOc2ccccc2COC(=O)N(S(=O)(=O)c2ccccc2[N+](=O)[O-])Cc2cccc(c2)CN1S(=O)(=O)c1ccccc1[N+](=O)[O-])C(C)C` (mixture of isomers) [28 (14+10; unchromatographed E/Z mixture)] showed a ring closure, isolated yield of 88%.
For the compound `CC(C)[Si](CCC(F)(F)C(F)(F)C(F)(F)C(F)(F)C(F)(F)C(F)(F)C(F)(F)C(F)(F)F)(OC[C@@H]1COCC=CCOc2ccccc2COC(=O)N(S(=O)(=O)c2ccccc2[N+](=O)[O-])Cc2ccccc2CN1S(=O)(=O)c1ccccc1[N+](=O)[O-])C(C)C` [33 (16+10; E/Z >98:<2)], where the note is “from C=CCOC[C@@H](CO[Si](CCC(F)(F)C(F)(F)C(F)(F)C(F)(F)C(F)(F)C(F)(F)C(F)(F)C(F)(F)F)(C(C)C)C(C)C)N(Cc1ccccc1CN(C(=O)OCc1ccccc1OCC=C)S(=O)(=O)c1ccccc1[N+](=O)[O-])S(=O)(=O)c1ccccc1[N+](=O)[O-], 19-membered ring, 48.0 h”, the ring closure, isolated yield amounted to 75%.
As to `CC(C)[Si](CCC(F)(F)C(F)(F)C(F)(F)C(F)(F)C(F)(F)C(F)(F)C(F)(F)C(F)(F)F)(OC[C@H]1CC=CCC[C@@H](O[Si](C)(C)C(C)(C)C)[C@H](C)CN(S(=O)(=O)C(F)(F)F)Cc2ccccc2CN1S(=O)(=O)c1ccccc1[N+](=O)[O-])C(C)C` [23 (13+11, from 22; 2 steps RCM + denosylation; E/Z 30:70)], the ring closure, isolated yield (from C=CCC[C@@H](O[Si](C)(C)C(C)(C)C)[C@H](C)CN(Cc1ccccc1CN([C@H](CC=C)CO[Si](CCC(F)(F)C(F)(F)C(F)(F)C(F)(F)C(F)(F)C(F)(F)C(F)(F)C(F)(F)F)(C(C)C)C(C)C)S(=O)(=O)c1ccccc1[N+](=O)[O-])S(=O)(=O)C(F)(F)F, 15-membered ring) turned out to be 84%.
`CC(C)[Si](CCC(F)(F)C(F)(F)C(F)(F)C(F)(F)C(F)(F)C(F)(F)C(F)(F)C(F)(F)F)(OC[C@H]1COCC=CCOc2ccccc2COC(=O)N(S(=O)(=O)c2ccccc2[N+](=O)[O-])Cc2cccc(c2)CN1S(=O)(=O)c1ccccc1[N+](=O)[O-])C(C)C` [37 (17+10; E/Z 70:30)] came in with a ring closure, isolated yield (from C=CCOC[C@H](CO[Si](CCC(F)(F)C(F)(F)C(F)(F)C(F)(F)C(F)(F)C(F)(F)C(F)(F)C(F)(F)F)(C(C)C)C(C)C)N(Cc1cccc(CN(C(=O)OCc2ccccc2OCC=C)S(=O)(=O)c2ccccc2[N+](=O)[O-])c1)S(=O)(=O)c1ccccc1[N+](=O)[O-], 20-membered ring, 60.0 h) of 78%.
With `COc1ccc([C@H]2COCC=CC[C@H](CO[Si](CCC(F)(F)C(F)(F)C(F)(F)C(F)(F)C(F)(F)C(F)(F)C(F)(F)C(F)(F)F)(C(C)C)C(C)C)N(S(=O)(=O)c3ccccc3[N+](=O)[O-])Cc3ccccc3CN(S(=O)(=O)c3ccccc3[N+](=O)[O-])C(=O)OC2)c(OC)c1` [24 (13+9; 2 steps RCM + denosylation; E/Z 60:40)], the ring closure, isolated yield (from C=CCOC[C@@H](COC(=O)N(Cc1ccccc1CN([C@H](CC=C)CO[Si](CCC(F)(F)C(F)(F)C(F)(F)C(F)(F)C(F)(F)C(F)(F)C(F)(F)C(F)(F)F)(C(C)C)C(C)C)S(=O)(=O)c1ccccc1[N+](=O)[O-])S(=O)(=O)c1ccccc1[N+](=O)[O-])c1ccc(OC)cc1OC, 17-membered ring, 24.0 h) was found to be 33%.
The compound `CC(C)[Si](CCC(F)(F)C(F)(F)C(F)(F)C(F)(F)C(F)(F)C(F)(F)C(F)(F)C(F)(F)F)(OC[C@H]1CC=CCOc2ccccc2COC(=O)N(S(=O)(=O)c2ccccc2[N+](=O)[O-])Cc2ccccc2CN1S(=O)(=O)c1ccccc1[N+](=O)[O-])C(C)C` [25 (13+10; E/Z 65:35)] showed a ring closure, isolated yield (from C=CCOc1ccccc1COC(=O)N(Cc1ccccc1CN([C@H](CC=C)CO[Si](CCC(F)(F)C(F)(F)C(F)(F)C(F)(F)C(F)(F)C(F)(F)C(F)(F)C(F)(F)F)(C(C)C)C(C)C)S(=O)(=O)c1ccccc1[N+](=O)[O-])S(=O)(=O)c1ccccc1[N+](=O)[O-], 17-membered ring, 24.0 h) of 56%.
In turn, `CC(C)[Si](CCC(F)(F)C(F)(F)C(F)(F)C(F)(F)C(F)(F)C(F)(F)C(F)(F)C(F)(F)F)(OC[C@H]1COCC=CCC[C@@H](O[Si](C)(C)C(C)(C)C)[C@H](C)C(=O)N(S(=O)(=O)c2ccccc2[N+](=O)[O-])Cc2cccc(c2)CN1S(=O)(=O)c1ccccc1[N+](=O)[O-])C(C)C` [19 (from 18; Z 50% + E 40%)] displayed a ring closure, isolated yield (from C=CCC[C@@H](O[Si](C)(C)C(C)(C)C)[C@H](C)C(=O)N(Cc1cccc(CN([C@H](COCC=C)CO[Si](CCC(F)(F)C(F)(F)C(F)(F)C(F)(F)C(F)(F)C(F)(F)C(F)(F)C(F)(F)F)(C(C)C)C(C)C)S(=O)(=O)c2ccccc2[N+](=O)[O-])c1)S(=O)(=O)c1ccccc1[N+](=O)[O-], 18-membered ring, 48.0 h) of 90%.
